{"source": "patent US20260158011A1", "about": "(Achieve Life Sciences, Inc., priority 2023, published 2026)", "tested_on": "adults who smoked 10 cigarettes per day", "procedure": "Safety was assessed by measurement of vital signs and participant self-report of adverse events and concomitant medications on day 2 and at weekly visits during treatment from week 1 to 12 and through an additional 12-week follow-up. Hematology and chemistry laboratory tests were done at weeks 1, 6, and 12. Electrocardiograms were done at weeks 6 and 12. Clinically significant adverse events or abnormalities were followed until resolution or end of study.\nThe study had two primary endpoints. […] Study success was defined as either primary endpoint meeting statistical criterion. The secondary outcome measures were verified continuous cigarette abstinence to week 24 (weeks 3 to 24 for Arms B vs. A; weeks 9 to 24 for Arms C vs. A). A third secondary outcome measure compared the risk of relapse to smoking between weeks 6 and 24 among participants assigned to cytisinicline who achieved abstinence by week 6; these individuals were either switched to placebo at week 6 (Arm B) or continued cytisinicline to week 12 (Arm C). Other pre-specified endpoints included comparing the difference between arms in verified 7-day point-prevalence abstinence at each visit from week 2 through week 24 and assessing for evidence of effect modification for subsets defined by baseline attributes. To assess cigarette craving between groups, the Brief Questionnaire of Smoking Urges (QSU-brief) was administered at clinic visits on Day 0 and at Weeks 1 to 6 (4, 5). Safety outcomes included the incidence of treatment-emergent serious and non-serious adverse events during treatment with cytisinicline or placebo and clinically-significant changes in vital signs, laboratory tests or electrocardiograms.\nAnalyses for the binary primary and secondary outcomes were based on exact analyses 2×2 tables stratified by clinical site. Missed assessments of primary and secondary endpoints were imputed as non-success, thereby enabling analyses following the intent-to-treat principle. The Hochberg procedure was used to control for multiplicity (6). A target sample of 750 participants (n=250 per arm) was computed and verified using simulations to provide 96% power for specifications of an overall one-sided 0.025 type I error probability and success probabilities of 7% for placebo and 19% for cytisinicline. Sensitivity analyses included assessments of effect modification related to subsets defined by baseline attributes using logistic and cumulative logit models. Longitudinal analyses used Mixed Model for Repeated Measures methodology (7). Safety analyses included all randomized participants who received at least one dose of study drug. Analyses were conducted by BB.", "key": {"[1]": {"conditions": "Arm B Cytisinicline 6 weeks + placebo 6 weeks, N = 269"}, "[2]": {"conditions": "Arm B Cytisinicline 6 weeks + placebo 6 weeks, of 459 events"}, "[3]": {"conditions": "Arm C Cytisinicline 12 weeks, N = 270"}, "[4]": {"conditions": "Arm C Cytisinicline 12 weeks, of 494 events"}}, "note": "Read-outs that look alike come from different tables or passages of the source."}
{"smiles": "O=c1cccc2n1C[C@@H]1CNC[C@H]2C1", "note": "[cytisine, (−)-Cytisine]", "values": [{"measurement": "Treatment-emergent adverse events reported", "setting": "6-week cytisinicline arm", "result": "172 (63.9%) participants (%)"}, {"measurement": "Treatment-emergent adverse events reported", "setting": "12-week cytisinicline arm", "result": "184 (68.2%) participants (%)"}, {"measurement": "OR for serious adverse events, cytisinicline versus placebo", "setting": "539 cytisinicline vs 270 placebo participants", "result": 3.08}, {"measurement": "Study drug discontinuation due to adverse events", "setting": "Arm B", "result": 2.6, "unit": "%"}, {"measurement": "Number of treatment emergent adverse events", "setting": "[1]", "result": 459}, {"measurement": "Participants with Abnormal dreams (treatment-emergent adverse event), %", "setting": "[1]", "result": 8.2, "unit": "%"}, {"measurement": "Participants with Anxiety (treatment-emergent adverse event), %", "setting": "[1]", "result": 2.6, "unit": "%"}, {"measurement": "Participants with Constipation (treatment-emergent adverse event), %", "setting": "[1]", "result": 5.9, "unit": "%"}, {"measurement": "Participants with Diarrhea (treatment-emergent adverse event), %", "setting": "[1]", "result": 3.7, "unit": "%"}, {"measurement": "Participants with Headache (treatment-emergent adverse event), %", "setting": "[1]", "result": 6.7, "unit": "%"}, {"measurement": "Participants with Insomnia (treatment-emergent adverse event), %", "setting": "[1]", "result": 8.6, "unit": "%"}, {"measurement": "Participants with Nausea (treatment-emergent adverse event), %", "setting": "[1]", "result": 5.9, "unit": "%"}, {"measurement": "Participants with any serious adverse event, %", "setting": "[1]", "result": 3.7, "unit": "%"}, {"measurement": "Participants with any treatment emergent adverse event, %", "setting": "[1]", "result": 63.9, "unit": "%"}, {"measurement": "Participants with any treatment-related serious adverse event, %", "setting": "[1]", "result": 0, "unit": "%"}, {"measurement": "Treatment emergent adverse events, Mild, %", "setting": "[2]", "result": 63.2, "unit": "%"}, {"measurement": "Treatment emergent adverse events, Moderate, %", "setting": "[2]", "result": 32.2, "unit": "%"}, {"measurement": "Treatment emergent adverse events, Severe, %", "setting": "[2]", "result": 4.6, "unit": "%"}, {"measurement": "Study drug discontinuation due to adverse events", "setting": "Arm C", "result": 3.7, "unit": "%"}, {"measurement": "Number of treatment emergent adverse events", "setting": "[3]", "result": 494}, {"measurement": "Participants with Abnormal dreams (treatment-emergent adverse event), %", "setting": "[3]", "result": 7.8, "unit": "%"}, {"measurement": "Participants with Anxiety (treatment-emergent adverse event), %", "setting": "[3]", "result": 5.6, "unit": "%"}, {"measurement": "Participants with Constipation (treatment-emergent adverse event), %", "setting": "[3]", "result": 4.8, "unit": "%"}, {"measurement": "Participants with Diarrhea (treatment-emergent adverse event), %", "setting": "[3]", "result": 4.4, "unit": "%"}, {"measurement": "Participants with Headache (treatment-emergent adverse event), %", "setting": "[3]", "result": 7.8, "unit": "%"}, {"measurement": "Participants with Insomnia (treatment-emergent adverse event), %", "setting": "[3]", "result": 9.6, "unit": "%"}, {"measurement": "Participants with Nausea (treatment-emergent adverse event), %", "setting": "[3]", "result": 5.6, "unit": "%"}, {"measurement": "Participants with any serious adverse event, %", "setting": "[3]", "result": 3.0, "unit": "%"}, {"measurement": "Participants with any treatment emergent adverse event, %", "setting": "[3]", "result": 68.2, "unit": "%"}, {"measurement": "Participants with any treatment-related serious adverse event, %", "setting": "[3]", "result": 0, "unit": "%"}, {"measurement": "Treatment emergent adverse events, Mild, %", "setting": "[4]", "result": 61.3, "unit": "%"}, {"measurement": "Treatment emergent adverse events, Moderate, %", "setting": "[4]", "result": 36.0, "unit": "%"}, {"measurement": "Treatment emergent adverse events, Severe, %", "setting": "[4]", "result": 2.6, "unit": "%"}, {"measurement": "Treatment-related SAEs", "setting": "all arms", "result": "No SAE was judged to be treatment-related"}, {"measurement": "Serious adverse events (SAEs)", "setting": "of 539 participants on cytisinicline", "result": "18 (3.3%) participants (%)"}, {"measurement": "Study drug discontinuation due to adverse events", "setting": "of 539 participants receiving cytisinicline (Arms B and C)", "result": "17 (3.2%) participants (%)"}]}
